The subject of data set [1] is Mattek's EpiDerm™ X (EPI-606-X) reconstructed human epidermis tissue. Briefly: Skin metabolism, full scan HRMS search for metabolites in permeation samples. The format is in vitro ADME. Particulars: t=4, 8, 20, 22, 24 h vs time zero; positive and negative ESI. The protocol: The skin metabolism of ZEP3 and ZEP3Na was also investigated. Full scan HRMS chromatograms were acquired for the samples, in both positive and negative ESI mode, in order to identify possible metabolites of the target analytes. Differential analysis between the samples through the experiment (t=4, 8, 20, 22, and 24 h) and the sample at time zero was performed. Evaluation of the fragmentation profile through MS/MS experiments was also performed in order to provide additional information.

Data set [2] relates to epidermal cells. Briefly: Formation of reactive oxygen species (ROS) in epidermal cells under stress conditions. It counts as cell-based. Particulars: stress conditions (70 mM NaCl).
The test system of data set [3] is epidermal cells. In words: Viability of epidermal cells under stress conditions. Particulars: stress conditions (70 mM NaCl). The format is cell-based.
For data set [4] the following is noted: rat, chemical corneal injury; cited from earlier work.

Where a SMILES comes first, the peptide text is derived from it. [ ]: non-standard residue; d: D form. The star is where a group is joined. pGlu = O=C1CC[C@@H](C(=O)O)N1; Octanoyl = CCCCCCCC(=O)*

Consider `CCCCCCCC(=O)NCCCC[C@H](NC(=O)[C@H](Cc1c[nH]c2ccccc12)NC(=O)[C@H](CC(N)=O)NC(=O)[C@@H]1CCC(=O)N1)C(=O)O` [ZEP3, pGlu-Asn-Trp-Lys(Octanoyl)-OH] ([pGlu]NWK(Octanoyl)-OH), for which, in data set [1], the metabolites identified entry was “No metabolites”. Besides, the “formation of reactive oxygen species (ROS)” value in the data set on epidermal cells [2] is “reduced the formation of reactive oxygen species (ROS)”. For the same compound, the “viability of epidermal cells” value in the data set with epidermal cells [3] is given as “increased viability of epidermal cells”.

Consider “pGlu-Asn-Trp-Thr-OH ([pGlu]NWT-OH; SMILES C[C@@H](O)[C@H](NC(=O)[C@H](Cc1c[nH]c2ccccc12)NC(=O)[C@H](CC(N)=O)NC(=O)[C@@H]1CCC(=O)N1)C(=O)O) [ZEP4]”, for which the “formation of reactive oxygen species (ROS)” value in the data set on epidermal cells [2] is on record as “reduced the formation of reactive oxygen species (ROS)”. Also, the “effect on ocular pain” value in data set [4] is “analgesic effect”. For the same compound, the “viability of epidermal cells” value with epidermal cells [3] is “increased viability of epidermal cells”.

The record behind these values is patent publication US12433830B2, “Anti-aging compositions and methods of use thereof” (S.I.S. SHULOV INNOVATIVE SCIENCE LTD., priority 2019, dated 2025).
